According to patent publication US7194978B2, “Inducing sterility in fish by disrupting the development of the GnRH system” (University of Maryland Biotechnology Institute, priority 2003, dated 2007):

How the values were obtained:
[1] = system: forebrain (TN) GnRH neurons; test: Developmental migration of GnRH neurons in zebrafish larvae, whole-mount ISH; format: in vivo, zebrafish (Danio rerio); conditions: sampled at 7, 9, 10, 12 days pf
From the text: Digoxigenin (DIG)-labeled complimentary RNA (cRNA) probe was synthesized from plasmid DNA, containing the seabream TN GnRH cDNA, using T7 RNA polymerase. The probe was hybridized to cellular TN GnRH mRNA in whole, fixed 3–22 days pf of larvae. The hybridized probe was then detected with anti-DIG antibody conjugated to alkaline phosphatase (Anti-DIG-AP), and the complex (mRNA:DIG-labeled cRNA:Anti-DIG-AP) was detected by an enzymatic reaction of AP with a chromogenic substrate, which forms a precipitating dark purple pigment. The procedure was performed according to a standard published protocol for whole-mount ISH (Westerfield et al., 1995). The age of the larvae are boxed on the top left of each photograph. TN GnRH-expressing cells are indicated by an arrow.
FIGS. 3A, B and C show the effect of GABA-ergic compounds on developmental migration of TN GnRH neurons in zebrafish. […] Note the extent of neuronal migration toward the brain seen in untreated fish, as compared to treated fish. Whole-mount ISH analysis was done as described in FIG. 1. Differential interference contrasting microscopy was used to visualize TN GnRH hybridization in deep tissue layers of the nasal placode. All panels at 200×.
Zebrafish. Zebrafish larvae 5–8 days post-fertilization (dpf) and 7–10 dpf were immersed in GABA (1 mM) or Muscimol (100 micromolar). […]

[2] = system: zebrafish gonads; test: Gonadal development in zebrafish, histological analysis of the gonads at 9 weeks; format: in vivo, zebrafish (Danio rerio); conditions: histology after 9 weeks of growth
Method: FIGS. 4A. B and C show the effect of GABA-ergic compounds on gonadal development in zebrafish. Hematoxylineosin staining of gonadal tissues of 9-week old zebrafish exposed at 7–10 days pf to A) no treatment, B) 1 mM GABA and C) 100 μM Muscimol. Note greater degree of organization and more advanced gamete development in A), compared to B) and C). s: somatic cells; o: oogonia; v: oocytes in early stages of vitellogenesis; v*: vitellogenic oocytes with abnormal follicle development. A), C) at 200×; B) 400×.
Zebrafish. Zebrafish larvae 5–8 days post-fertilization (dpf) and 7–10 dpf were immersed in GABA (1 mM) or Muscimol (100 micromolar). Muscimol is a potent GABA agonist that acts specifically on GABAA receptor subtypes. Similar to the post-treatment assays conducted on seabream larvae, zebrafish tissue samples (n=12) were collected at 7, 9, 10, and 12 days pf and also after 9 weeks of growth for detection/analysis of GnRH neuron development and histological analysis of the gonads. […] Confirmation is made to determine the effectiveness of the treatment prior to sexual maturation (or lack thereof).
Zebrafish larvae were immersed in GABA (1 mM) or Muscimol (100 micromolar) at 5–8 days pf and 7–10 days pf. (Muscimol is a potent GABA agonist that acts specifically on GABAA receptor subtypes). Samples (n=12) were collected at 7, 9, 10, and 12 day pf for subsequent detection of GnRH neurons. […]

[3] = system: sGnRH gene expression; test: sGnRH transcript levels in seabream larvae after GABA immersion, quantitative RT-PCR; format: in vivo, gilthead seabream (Sparus aurata); conditions: immersion in GABA 10^−7 to 10^−3 M for 18 hours, sampled 24 hours after treatment
Method: (§1) FIGS. 2A, B and C show the effect of GABA treatment on GnRH gene expression during development. Larvae were sampled 24 hours after overnight treatment at 3 days pf ( ? ), 1 week pf ( ? ) or 2 weeks pf ( ? ) and levels of GnRH transcript were measured by quantitative RT-PCR Values on the Y axis are expressed as copy number/20 ng total RNA. Values on the X axis range from 0 to 1 mM GABA. 100 ng total RNA was isolated from tissues using a modified acid-phenol extraction method (TRI REAGENT, MRC, Inc., Cincinnati, Ohio) and reverse transcribed into cDNA using random hexamers and MMLV reverse transcriptase. PCR was performed in 96-well plates on diluted cDNA templates using SYBR® Green PCR Core Reagent (PE Applied Biosystems, Foster City, Calif.) and the relevant GnRH primers. Primers were designed to span intron/exon boundaries in order to avoid amplification of genomic DNA. Amplification reactions were carried out using the ABI Prism® 7700 Sequence Detection System (PE Applied Biosystems), which consists of a built-in thermalcycler, laser irradiation and CCD detector system, and software analysis package. For each reaction, the Prism® 7700 generated an amplification plot of fluorescence signal versus cycle number, and CT (the fractional cycle number at which fluorescence passes a baseline threshold value) was determined (Fink et al., 1998). […] Quantitation of the amount of target in each sample was accomplished by comparing CT values of unknowns to standards to determine initial copy number. […]
(§2) Seabream. […] At 24 hours post-treatment, transcript levels for each of the 3 GnRHs in seabream were determined using real-time, fluorescence-based quantitative RT-PCR assays. […]
Seabream larvae at 3 days, 1 week and 2 weeks pf were immersed in various concentrations of GABA (10^−7 to 10^−3 M) for a period of 18 hours (200 larvae per treatment). Larvae were collected 24 hours after the treatments and transcript levels for each of the 3 GnRHs were determined using real-time, fluorescence-based quantitative RT-PCR assays.

[4] = system: cGnRH-II expression; test: cGnRH-II transcript levels in seabream larvae after GABA immersion, quantitative RT-PCR; format: in vivo, gilthead seabream (Sparus aurata); conditions: 2-week-old seabream larvae; immersion in GABA 10^−7 to 10^−3 M for 18 hours; sampled 24 hours after treatment
Method: as §1, with “Primers were designed to span intron/exon boundaries in order to avoid amplification of genomic DNA. Amplification reactions were carried out using the ABI Prism® 7700 Sequence Detection System (PE Applied Biosystems), which consists of a built-in thermalcycler, laser irradiation and CCD detector system, and software analysis package.” left out
as §2

[5] = system: sbGnRH transcript levels; test: sbGnRH transcript levels in seabream larvae after GABA immersion, quantitative RT-PCR; format: in vivo, gilthead seabream (Sparus aurata); conditions: seabream larvae 3 days, 1 week, 2 weeks pf; immersion in GABA 10^−7 to 10^−3 M for 18 hours
Method: as §1, with “Primers were designed to span intron/exon boundaries in order to avoid amplification of genomic DNA. Amplification reactions were carried out using the ABI Prism® 7700 Sequence Detection System (PE Applied Biosystems), which consists of a built-in thermalcycler, laser irradiation and CCD detector system, and software analysis package.” left out
as §2

[6] = zebrafish larvae immersed in 100 micromolar Muscimol at 5–8 dpf and 7–10 dpf
[7] = zebrafish larvae immersed in 1 mM GABA at 5–8 dpf and 7–10 dpf

Row | SMILES | migration of the GnRH neurons [1, 6] | gonadal development [2, 6] | sGnRH gene expression ([3]; 1-week-old seabream larvae) | sGnRH gene expression ([3]; 2-week-old seabream larvae) | sGnRH gene expression ([3]; 3-day-old seabream larvae) | migration of the GnRH neurons [1, 7] | gonadal development [2, 7] | cGnRH-II expression [4] | sbGnRH transcript levels [5]
1 | NCc1cc(=O)[nH]o1 [Muscimol] | clearly inhibited | clearly inhibited | – | – | – | – | – | – | –
2 | NCCCC(=O)O [GABA, Gamma-aminobutyric acid] | – | – | dose-dependent decrease | no effect | no effect | clearly inhibited | clearly inhibited | slight increase | no definitive effect seen
